By EC50 is commonly meant the midpoint of the concentration-response curve. Lower therefore signals an effect from little substance.

This passage reports EC50 results from patent US8822503B2, “2-pyridone compounds” (Taisho Pharmaceutical Co., Ltd, priority 2009, dated 2014).

This assay addresses T1, human liver GK (Homo sapiens, UniProt P35557).
T1 construct: GST (glutathione S-transferase) (N); made in house; host or cells: E. coli
T1 sequence (P35557 1-466 isoform P35557-2): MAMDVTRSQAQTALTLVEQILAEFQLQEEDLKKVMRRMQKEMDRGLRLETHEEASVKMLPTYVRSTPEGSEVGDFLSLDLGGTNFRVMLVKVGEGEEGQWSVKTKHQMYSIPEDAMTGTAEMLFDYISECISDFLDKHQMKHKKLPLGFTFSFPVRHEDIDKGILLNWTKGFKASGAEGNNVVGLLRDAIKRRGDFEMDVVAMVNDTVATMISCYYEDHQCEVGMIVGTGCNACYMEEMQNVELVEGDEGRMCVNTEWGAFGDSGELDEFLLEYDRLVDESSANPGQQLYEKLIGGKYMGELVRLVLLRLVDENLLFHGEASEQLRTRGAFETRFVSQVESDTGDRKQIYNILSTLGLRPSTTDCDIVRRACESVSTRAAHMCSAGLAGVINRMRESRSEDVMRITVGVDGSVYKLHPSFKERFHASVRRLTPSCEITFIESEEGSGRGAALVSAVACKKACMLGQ
The experiment in a line: GK activation test. It is filed as biochemical. Particulars: test compound concentration needed to activate 50% of maximum activation ability; 4 mM 14C-labeled glucose, 2 mM ATP, room temperature, 20 minutes. In short, it runs like this: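 GST-tagged human liver GK from E. coli (0.24 μg/well) with 4 mM 14C-glucose, 2 mM ATP in Hepes-KOH pH 7.1, KCl, MgCl2, DTT, 1% DMSO, 20 min room temperature. Labeled glucose 6-phosphate captured on anion resin, eluted and counted. EC50 = concentration giving half of maximal activation.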
`CCS(=O)(=O)c1ccc(/C(=C\C2CCCC2)c2ccc(C)c(=O)[nH]2)cc1` [Example 1-10, 6-{(E)-2-Cyclopentyl-1-[4-(ethylsulfonyl)phenyl]ethenyl}-3-methylpyridin-2(1H)-one]: the EC50 was 0.01 to 0.5 µM.
Next, `CCc1ccc(/C(=C/[C@H]2CCC(=O)N2)c2ccc(C(C)(C)C)cc2)[nH]c1=O` [Example 4-176, 6-{(E)-1-(4-tert-Butylphenyl)-2-[(2R)-5-oxopyrrolidin-2-yl]ethenyl}-3-ethylpyridin-2(1H)-one]: 0.01 to 0.5 µM.
Regarding `Cc1ccc(/C(=C/C2CCCC2)c2ccc(S(=O)(=O)N(C)C)cc2)[nH]c1=O` [Example 1-14, 4-[(E)-2-Cyclopentyl-1-(5-methyl-6-oxo-1,6-dihydropyridin-2-yl)ethenyl]-N,N-dimethylbenzenesulfonamide], the EC50 was in the range of 0.01 to 0.5 µM.
Then `COc1cc(F)c(C(C[C@H]2CCC(=O)N2)c2ccc(C3CC3)c(=O)[nH]2)cc1Cl` (single isomer, unassigned) [Example 4-347], with 3 to 10 µM.
Then `Cc1cc(/C(=C\[C@H]2CCC(=O)N2)c2ccc(Cl)c(=O)[nH]2)ccc1SC1CC1` [Example 4-34, 3-Chloro-6-{(E)-1-[4-(cyclopropylsulfanyl)-3-methylphenyl]-2-[(2R)-5-oxopyrrolidin-2-yl]ethenyl}pyridin-2(1H)-one], with 0.5 to 3 µM; and `CC(C)c1ccc(/C(=C\[C@H]2CCC(=O)N2)c2ccc(C3CC3)c(=O)[nH]2)cc1` [Example 4-67, 3-Cyclopropyl-6-{(E)-2-[(2R)-5-oxopyrrolidin-2-yl]-1-[4-(propan-2-yl)phenyl]ethenyl}pyridin-2(1H)-one], with 0.01 to 0.5 µM; and `CCN1CC(S(=O)(=O)c2ccc(/C(=C\C3CCCC3)c3ccc(C)c(=O)[nH]3)cc2)C1` [Example 1-32, 6-[(E)-2-Cyclopentyl-1-{4-[(1-ethylazetidin-3-yl)sulfonyl]phenyl}ethenyl]-3-methylpyridin-2(1H)-one], with 0.5 to 3 µM.
Then `CC(C)(C)c1ccc(/C(=C\CCN2CCCS2(=O)=O)c2ccc(Cl)c(=O)[nH]2)cc1` [Example 6-12, 6-[(1E)-1-(4-tert-Butylphenyl)-4-(1,1-dioxide-1,2-thiazolidin-2-yl)but-1-en-1-yl]-3-chloropyridin-2(1H)-one], with 0.5 to 3 µM.
Compound `O=C1CC[C@H](/C=C(\c2ccc(-c3ccccc3)cc2)c2ccc(Cl)c(=O)[nH]2)N1` [Example 4-151, 6-{(E)-1-(Biphenyl-4-yl)-2-[(2R)-5-oxopyrrolidin-2-yl]ethenyl}-3-chloropyridin-2(1H)-one] yielded an EC50 of 0.5 to 3 µM.
Take `CCOc1ccc(C(C[C@H]2CCC(=O)N2)c2ccc(Cl)c(=O)[nH]2)cc1Cl` (stereo partly drawn) [Example 4-3, 3-Chloro-6-{1-(3-chloro-4-ethoxyphenyl)-2-[(2R)-5-oxopyrrolidin-2-yl]ethyl}pyridin-2(1H)-one]: the EC50 is 0.5 to 3 µM.
Next, `CCN(CC)CCCOc1ccc(/C(=C\C2CCOCC2)c2ccc(C3CC3)c(=O)[nH]2)cc1Cl` [Example 1-57, 6-[(E)-1-{3-Chloro-4-[3-(diethylamino)propoxy]phenyl}-2-(tetrahydro-2H-pyran-4-yl)ethenyl]-3-cyclopropylpyridin-2(1H)-one]: 0.5 to 3 µM.
Then `COCCCc1ccc(/C(=C\[C@H]2CCC(=O)N2)c2ccc(Cl)c(=O)[nH]2)cc1` [Example 4-264, 3-Chloro-6-{(E)-1-[4-(3-methoxypropyl)phenyl]-2-[(2R)-5-oxopyrrolidin-2-yl]ethenyl}pyridin-2(1H)-one], with 0.5 to 3 µM; and `Cc1ccc(/C(=C/[C@H]2CCC(=O)C2)c2ccc(S(C)(=O)=O)c(Cl)c2)[nH]c1=O` [Example 1-68, 6-{(E)-1-[3-Chloro-4-(methylsulfonyl)phenyl]-2-[(1S)-3-oxocyclopentyl]ethenyl}-3-methylpyridin-2(1H)-one], with 0.5 to 3 µM; and `O=c1[nH]c(C(CC2CCCC2)c2ccc(S(=O)(=O)C3CC3)cc2)ccc1Cl` (centres unmarked) [Example 2-25, 3-Chloro-6-{2-cyclopentyl-1-[4-(cyclopropylsulfonyl)phenyl]ethyl}pyridin-2(1H)-one], with 0.5 to 3 µM.
For `CSc1ccc(/C(=C\C2CCOC2)c2ccc(C3CC3)c(=O)[nH]2)cc1` (centres unmarked) [Example 1-47, 3-Cyclopropyl-6-[(E)-1-[4-(methylsulfanyl)phenyl]-2-(tetrahydrofuran-3-yl)ethenyl]pyridin-2(1H)-one], the concentration for a half-maximal effect (EC50) is 0.01 to 0.5 µM.
Next, `CC(=O)c1ccc(/C(=C\C2CCOCC2)c2ccc(Cl)c(=O)[nH]2)cc1` [Example 1-112, 6-[(E)-1-(4-Acetylphenyl)-2-(tetrahydro-2H-pyran-4-yl)ethenyl]-3-chloropyridin-2(1H)-one]: 3 to 10 µM.
Next, `O=C1CC[C@H](CC(c2ccc(C3CC3)c(=O)[nH]2)c2ccc(Cl)cc2F)N1` (single isomer, unassigned) [Example 4-335]: 3 to 10 µM; `CCOc1ccc(/C(=C\[C@H]2CCC(=O)N2)c2ccc(Cl)c(=O)[nH]2)cc1` [Example 4-48, 3-Chloro-6-{(E)-1-(4-ethoxyphenyl)-2-[(2R)-5-oxopyrrolidin-2-yl]ethenyl}pyridin-2(1H)-one]: 0.5 to 3 µM; `O=C1CC[C@H](CC(c2ccc(OC3CC3)c(Cl)c2)c2ccc(C3CC3)c(=O)[nH]2)N1` (single isomer, unassigned) [Example 4-344]: 0.01 to 0.5 µM.
Consider `CC(C)(C)c1ccc(/C(=C\[C@H]2CCC(=O)N2)c2ccc(Oc3ccccc3)c(=O)[nH]2)cc1` [Example 4-185, 6-{(E)-1-(4-tert-Butylphenyl)-2-[(2R)-5-oxopyrrolidin-2-yl]ethenyl}-3-phenoxypyridin-2(1H)-one], for which the half-maximal effective concentration (EC50) is 0.01 to 0.5 µM.
Next, `Cc1ccc(/C(=C/C2CCOCC2)c2ccc(S(C)(=O)=O)c(Cl)c2)[nH]c1=O` [Example 1-56, 6-{(E)-1-[3-Chloro-4-(methylsulfonyl)phenyl]-2-(tetrahydro-2H-pyran-4-yl)ethenyl}-3-methylpyridin-2(1H)-one]: 0.5 to 3 µM; `O=C1CC[C@H](/C=C(\c2ccc(C(F)(F)F)cc2)c2ccc(C(F)(F)F)c(=O)[nH]2)N1` [Example 4-259, 6-{(E)-2-[(2R)-5-Oxopyrrolidin-2-yl]-1-[4-(trifluoromethyl)phenyl]ethenyl}-3-(trifluoromethyl)pyridin-2(1H)-one]: 0.5 to 3 µM.
Next, `O=C1CC[C@H](/C=C(\c2ccc(F)cc2)c2ccc(C3CC3)c(=O)[nH]2)N1` [Example 4-100, 3-Cyclopropyl-6-{(E)-1-(4-fluorophenyl)-2-[(2R)-5-oxopyrrolidin-2-yl]ethenyl}pyridin-2(1H)-one]: 0.5 to 3 µM; `O=C1CC[C@H](/C=C(\c2ccncc2)c2ccc(C3CC3)c(=O)[nH]2)N1` [Example 4-144, 3-Cyclopropyl-6-[(E)-2-[(2R)-5-oxopyrrolidin-2-yl]-1-(pyridin-4-yl)ethenyl]pyridin-2(1H)-one]: 3 to 10 µM; `CN(CCO)S(=O)(=O)c1ccc(/C(=C\[C@H]2CCC(=O)N2)c2ccc(C3CC3)c(=O)[nH]2)cc1` [Example 4-140, 4-{(E)-1-(5-Cyclopropyl-6-oxo-1,6-dihydropyridin-2-yl)-2-[(2R)-5-oxopyrrolidin-2-yl]ethenyl}-N-(2-hydroxyethyl)-N-methylbenzenesulfonamide]: 0.01 to 0.5 µM.
Then `CCN(CC)CCCC(=O)c1ccc(/C(=C\C2CCCC2)c2ccc(C(F)(F)F)c(=O)[nH]2)cc1` [Example 1-42, 6-[(E)-2-Cyclopentyl-1-{4-[4-(diethylamino)butanoyl]phenyl}ethenyl]-3-(trifluoromethyl)pyridin-2(1H)-one], with 0.5 to 3 µM; and `CC(C)(C)c1ccc(/C(=C\[C@H]2CCC(=O)N2)c2ccc(CCCO)c(=O)[nH]2)cc1` [Example 4-198, 6-{(E)-1-(4-tert-Butylphenyl)-2-[(2R)-5-oxopyrrolidin-2-yl]ethenyl}-3-(3-hydroxypropyl)pyridin-2(1H)-one], with 0.01 to 0.5 µM.
In turn, `CS(=O)(=O)c1ccc(/C(=C\[C@H]2CCC(=O)N2)c2ccc(C3CC3)c(=O)[nH]2)cc1` [Example 4-53, 3-Cyclopropyl-6-{(E)-1-[4-(methylsulfonyl)phenyl]-2-[(2R)-5-oxopyrrolidin-2-yl]ethenyl}pyridin-2(1H)-one] came in with a half-maximal effective concentration (EC50) of 0.01 to 0.5 µM.
Next, `CSc1ccc(/C(=C\C2CCCC2)c2ccc(C)c(=O)[nH]2)cc1` [Example 1-7, 6-{(E)-2-Cyclopentyl-1-[4-(methylsulfanyl)phenyl]ethenyl}-3-methylpyridin-2(1H)-one]: 0.01 to 0.5 µM; `CC(=O)c1ccc(/C(=C/[C@H]2CCC(=O)N2)c2ccc(C(C)(C)C)cc2)[nH]c1=O` [Example 4-175, 3-Acetyl-6-{(E)-1-(4-tert-butylphenyl)-2-[(2R)-5-oxopyrrolidin-2-yl]ethenyl}pyridin-2(1H)-one]: 0.5 to 3 µM.
Then `CCOc1ccc(C(C[C@H]2CCC(=O)N2)c2ccc(Cl)c(=O)[nH]2)cc1C` (single isomer, unassigned) [Example 4-239], with 0.5 to 3 µM; and `CSc1ccc(/C(=C\CCCO)c2ccc(C3CC3)c(=O)[nH]2)cc1` [Example 1-96, 3-Cyclopropyl-6-{(1E)-5-hydroxy-1-[4-(methylsulfanyl)phenyl]pent-1-en-1-yl}pyridin-2(1H)-one], with 0.5 to 3 µM.
